Assays:
Male Sprague-Dawley rats = assay: Rat periosteal injection model (local injection onto femur subperiosteum); assay type: in vivo; conditions: for BMC: right femur, DEXA
Description: Male Sprague-Dawley rats at 3 weeks of age were used. The rats were anesthetized with isoflurane inhalation (2-3 minutes) in a conduction chamber located in a fume hood. The right hindlimb of each rat was shaved and cleaned. A 26 G needle attached with a hamilton syringe pre-filled with testing solution was used for the local injection. The solution was injected onto the subperiosteum of the anterior, mid-diaphyseal region of the femur in a volume of 5 to 10 ul for various days. On day 15, the rats were sacrificed and the femurs were collected for analysis. Periosteal bone induction was assessed by using radiography, dual-energy X-ray absorptiometry (DEXA) and/or peripheral quantitative computed tomography (pQCT), and histomorphometry. (Michael E, Joyce, Anita B. Roberts, Michael B. Sporn, and Mark Bolander, “Transforming growth factor-β and the initiation of chondrogenesis and osteogenesis in the rat femur,” The Journal of Cell Biology 110:2195-2207 (1990)).
The right femurs of male Spray-Dawley rats were injected with either vehicle or test compound for 1, 3, 7, and 14 days, respectively. The solution was prepared using 2% glycine as vehicle at pH of approximately 7.8-7.9. All rats were sacrificed on day 15 and the right femurs were collected for analysis. […] The test compound was (3-(((4-tert-butyl-benzyl)-(pyridine-3-sulfonyl)-amino)-methyl)-phenoxy)-acetic acid, sodium salt;
The right femur of each rat was injected with test compound for 3, 7 and 14 days, respectively. The left femur of each rat was injected with vehicle to serve as its own control. The solution was prepared using 2% glycine as vehicle at pH of approximately 7.8-7.9. Drug concentration was 80 mg/ml. The injected volume was 5 μl/rat/d (0.4 mg/rat/d). All rats were sacrificed on day 15 and both right and left femurs were collected for analysis. […] The test compound was 7-{[2-(3,5-dichloro-phenoxy)-ethyl]-methanesulfonyl-amino}-heptanoic acid.

beagle male dogs = assay: Ulnar segmental defect model, enhancement of bone healing in dog; assay type: in vivo
Description: It is clinically complex to heal segmental bone loss and non-union after fractures or reconstructive surgery. […] The following is a description of the ulnar segmental defect model used to evaluate bone healing in 11±1 kg beagle male dogs, 13 months old.
Beagle dogs were treated with antiparasitics one week before surgery and were given two doses of Baypamun (Bayer), 72 and 24 hours before the operation. Dogs were divided into four groups of eight animals.
Group A: 2 ml of phosphate buffered saline (PBS) was injected into the defect area filled with two helistat pre-cut sponges ([…]; 2.5×5 cm) 24, 48 and 72 hours following surgery.
Group B: 100 mg preparation of test compound was injected into the defect area filled with two helistat pre-cut sponges ([…]; 2.5×5 cm) 24 hours following surgery and for three consecutive days (24, 48 and 72 hours).
Group C: 100 mg preparation of test compound was injected into the defect area filled with two helistat pre-cut sponges ([…]; 2.5×5 cm) beginning 24 hours following surgery and daily thereafter for seven consecutive days.
Group D: 100 mg preparation of test compound was injected into the defect area filled with two helistat pre-cut sponges ([…]; 2.5×5 cm) 24 hours following surgery and daily thereafter for 14 days.
With animals under general anesthesia, the foreleg was prepped and draped in sterile fashion. A lateral incision approximately 10 cm in length was made and the ulna was exposed extraperiostally. Periosteum was cut and moved to the proximal and distal parts of the incision. Then 1.5 cm segmental defect was made in the midulna using a pendular saw. The radius and the remaining interosseal membrane were left intact. The defect site was irrigated with saline to remove bone debris. […] Both created bone ends were firmly stable and the radius served as a weight-bearing bone during the recovery process.
The site was then filled with the two helistat sponges as described above. In particular two Helistat sponges sized 2.5 times 5 cm were rolled to form a cylinder which was secured outside with fibrin net and two resorbable sutures. In that way subsequent dermal injections had larger areas of absorption. The soft tissues were meticulously closed in layers to aid the sponges. Injections were administered via dermal suture markers in such a way that the needle reached the opposing radius and then pulled back for approximately 5 mm. The total volume per injection was 2 ml consisting either of vehicle (PBS) or test compound in PBS. Following surgery animals were allowed full weight-bearing activity, water and food ad libitum. Radiographs of the forelimbs were obtained immediately following surgery and every two weeks thereafter until the termination of the study. Radiographs were graded on a 0 to 6 scale (Table A).
Dogs were sacrificed 12 weeks following surgery and the ulna was carefully dissected and fixed in 10% buffered formalin for histological analysis. As expected none of the control dogs re-bridged the defect confirming that the defect was a critical sized defect (Table B). Moreover, the non-union was pronounced permanent at the termination of the study since no significant progress in radiographs was observed between four and twelve weeks following surgery. In the 3-injections groups, none of the defects were re-bridged at the termination of the study. […] Radiographic scoring indicated a score between 2 and three for the dogs in this group.

dogs = conditions: local infusion for 3 weeks, 500 to 2000 μg per week; cited from earlier work
beagles = conditions: 0.2 mg/kg in 10% ethanol into defect site twice a day for 10 days; cited from earlier work
adult beagles = conditions: 0.2 mg in 0.5 ml injected into fracture sites twice a day for 10 days; cited from earlier work
[1] = tested on: metaphysis of the left tibia; conditions: daily intraosseous injections for 14 days; cited from earlier work
[2] = 14-injections group, eight dogs
[3] = Group D: 100 mg daily for 14 days, 12 weeks after surgery

CS(=O)(=O)N(CCCCCCC(=O)O)CCOc1cc(Cl)cc(Cl)c1 [7-{[2-(3,5-dichloro-phenoxy)-ethyl]-methanesulfonyl-amino}-heptanoic acid]
local bone formation by radiography (Male Sprague-Dawley rats; 3-day treatment, eight femurs, 80 mg/ml, 5 μl/rat/d (0.4 mg/rat/d), left femur vehicle control): did not show evidence for increase bone formation locally
femurs showing increased calcified area by radiography (Male Sprague-Dawley rats; 7-day treatment, 80 mg/ml, 5 μl/rat/d (0.4 mg/rat/d), left femur vehicle control): Two out of eight
femurs showing increased calcified area locally compared to controls by radiography (Male Sprague-Dawley rats; 14-day treatment, 80 mg/ml, 5 μl/rat/d (0.4 mg/rat/d), left femur vehicle control): All femurs (n=8)

CC(C)(C)c1ccc(CN(Cc2cccc(OCC(=O)[O-])c2)S(=O)(=O)c2cccnc2)cc1.[Na+] [CP, (3-(((4-tert-butyl-benzyl)-(pyridine-3-sulfonyl)-amino)-methyl)-phenoxy)-acetic acid, sodium salt]
BMC (Male Sprague-Dawley rats; 1 day of dosing, sacrifice day 15): 0.0469 ± 0.0030 g
BMC (Male Sprague-Dawley rats; 3 days of dosing, sacrifice day 15): 0.0446 ± 0.0064 g
BMC (Male Sprague-Dawley rats; 7 days of dosing, sacrifice day 15): 0.0485 ± 0.0054 g
BMC (Male Sprague-Dawley rats; 14 days of dosing, sacrifice day 15): 0.0533 ± 0.0044 g
excess calcified mass on anterior aspect of right femur, radiography (Male Sprague-Dawley rats; 14 days of treatment, sacrifice day 15): became significant
excess calcified mass on anterior aspect of right femur, radiography (Male Sprague-Dawley rats; injected for 7 days, sacrifice day 15): started to show excess calcified mass
periosteal bone formation (Male Sprague-Dawley rats; one- or three-day treatment, sacrifice day 15): did not result in periosteal bone formation
defined region bone area and bone mineral content (BMC) by DEXA compared to vehicle (Male Sprague-Dawley rats; vs vehicle-treated rats (Table I)): significantly increased
defects re-bridged at termination of the study (beagle male dogs; 3-injections group): none
histological analysis of newly formed bone (beagle male dogs; 3-injections group): complete mineralization of the newly formed bone
new bone induction (osteoconduction and periosteal reaction) (beagle male dogs; 3-injections group): observed in all the dogs
bone formation in the defect area (beagle male dogs; 7-injections group): Both endosteal and periosteal bone formation was observed
dogs showing full re-bridgement (beagle male dogs; 7-injections group): none
histological analysis of newly formed bone (beagle male dogs; 7-injections group): fully mineralized
dogs showing full re-bridgement by x-rays and histology (beagle male dogs; 14-injections group): two of the eight
dogs with large amount of new bone formation in defect area but defect not completely filled (beagle male dogs; [2]): Three other dogs
dogs with relatively less bone formation, pronounced non-responders (beagle male dogs; [2]): Three dogs
Bridging/8 dogs (beagle male dogs; Group B: 100 mg, 3 injections, 12 weeks after surgery): 0/8
Bridging/8 dogs (medial healing) (beagle male dogs; Group C: 100 mg daily for 7 days, 12 weeks after surgery): 1/8 showed medial healing
Radiographic Grading/8 dogs (beagle male dogs; Group D: 100 mg daily for 14 days, 0 to 6 scale): 4-6
Bridging/8 dogs (good bridging) (beagle male dogs; [3]): 4/8
dogs showing almost complete healing (beagle male dogs; [3]): Three

CCCCC[C@H](O)/C=C/[C@H]1[C@H](O)CC(=O)[C@@H]1CCCCCCC(=O)O [PGE1, prostaglandin E1]
alveolar bone formation in the mandible (dogs): produced a dramatic, localized formation of alveolar bone
periosteal and cortical endosteal bone formation (beagles): more periosteal and cortical endosteal bone formation
bone matrix formation at fracture site (adult beagles): induced bone matrix formation on the periosteal envelope

CCCCC[C@H](O)/C=C/[C@H]1[C@H](O)CC(=O)[C@@H]1C/C=C\CCCC(=O)O [PGE2, Prostaglandin E2]
trabecular bone in the metaphysis [1]: significant increase of trabecular bone

From patent US20030166631A1, “Pharmaceutical compositions and methods for administering EP2 receptor selective agonists” (priority 2001, published 2003)
